# Test results from patent US5047397A, “Linear analogs of atrial natriuretic peptides” (California Biotechnology Inc., priority 1988, dated 1991).
# Where a SMILES comes first, the peptide text is derived from it. [ ]: non-standard residue; d: D form. The star is where a group is joined. Propanoyl(3,3-Ph2) = O=C(CC(c1ccccc1)c1ccccc1)*; Acetyl(2-naphthyloxy) = O=C(COc1ccc2ccccc2c1)*; Acetyl(2-naphthyl) = O=C(Cc1ccc2ccccc2c1)*; Cyclohexylacetyl = O=C(CC1CCCCC1)*; Met(O) = CS(=O)CC[C@H](N)C(=O)O; Nle = CCCC[C@H](N)C(=O)O; Ahx = NCCCCCC(=O)O; GABA = NCCCC(=O)O; NHiBu = CC(C)CN*; X3 = CCC(C)CN*
# Biological target: T1, specific ANP receptor sites on BASM or BAE cells (Bos taurus, UniProt P10730)
# T1 construct: specific receptor sites on BASM or BAE cells; endogenous in cells; host or cells: cultured BASM and BAE cells
# T1 sequence (P10730 42-537): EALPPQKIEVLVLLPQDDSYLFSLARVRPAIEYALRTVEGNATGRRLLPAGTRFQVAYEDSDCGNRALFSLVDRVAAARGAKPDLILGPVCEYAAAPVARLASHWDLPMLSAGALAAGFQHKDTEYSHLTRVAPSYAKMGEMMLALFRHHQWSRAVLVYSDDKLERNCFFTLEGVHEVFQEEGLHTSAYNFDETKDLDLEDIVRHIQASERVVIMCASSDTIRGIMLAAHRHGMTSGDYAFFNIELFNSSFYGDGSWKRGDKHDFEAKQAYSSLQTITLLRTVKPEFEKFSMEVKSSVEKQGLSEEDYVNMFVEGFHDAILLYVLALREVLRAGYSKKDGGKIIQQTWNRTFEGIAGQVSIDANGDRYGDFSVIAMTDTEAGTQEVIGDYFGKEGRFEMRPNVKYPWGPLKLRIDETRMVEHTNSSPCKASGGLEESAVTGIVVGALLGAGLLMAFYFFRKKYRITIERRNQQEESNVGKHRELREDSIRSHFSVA
# Assay: Competitive displacement receptor binding of (125I)-rANP(126-150) on cultured cells
# Design: species or system bovine
# Settings: for Ki(app): concentration of unlabeled peptide displacing 50% of maximal binding of 0.5 nM (125I)-rANP(126-150), BASM or BAE cells
# Text: Analogous "competitive displacement" receptor binding assays are considered commonplace in the art for examining specific ligand-receptor interactions.
# Assuming these ANP analogs act at one or more ANP receptor sites, then increased receptor affinity should reflect increased biological potency.
SMILES,Ki(app),"receptor binding / activity as judged by Ki, in words"
"CC[C@H](C)[C@H](NC(=O)[C@H](CCCNC(=N)N)NC(=O)[C@H](CC(=O)O)NC(=O)[C@@H](NC(=O)[C@H](CCCNC(=N)N)NC(=O)CCCCCNC(=O)COc1ccc2ccccc2c1)[C@@H](C)CC)C(N)=O [AP325, (2-NOA)--NH(CH2)5 CO--R--I--D--R--I--NH2] ({Acetyl(2-naphthyloxy)-Ahx}-RIDRI-NH2)",> 0.1 µM,–
"CC[C@H](C)[C@H](NC(=O)[C@H](CCCNC(=N)N)NC(=O)[C@H](CC(=O)O)NC(=O)[C@@H](NC(=O)[C@H](CCCNC(=N)N)NC(=O)CCCNC(=O)Cc1ccc2ccccc2c1)[C@@H](C)CC)C(N)=O [AP327, (2-NA)--NH(CH2)3 CO--R--I-- D--R--I--NH2] ({Acetyl(2-naphthyl)-GABA}-RIDRI-NH2)",0.184 µM,–
"CCNC(=O)[C@@H](NC(=O)[C@H](CCCNC(=N)N)NC(=O)[C@H](CC(=O)O)NC(=O)[C@@H](NC(=O)[C@H](CCCNC(=N)N)NC(=O)CNC(=O)CNC(=O)Cc1ccc2ccccc2c1)[C@@H](C)CC)[C@@H](C)CC [AP328, (2-NA)--G--G--R--I--D--R--I--NH(ethyl)] ({Acetyl(2-naphthyl)}-GGRIDRI-NHEt)",0.01987 µM,–
"CC[C@H](C)[C@H](NC(=O)[C@H](CCCNC(=N)N)NC(=O)[C@H](CC(=O)O)NC(=O)[C@@H](NC(=O)[C@H](CCCNC(=N)N)NC(=O)CCCCCNC(=O)Cc1ccc2ccccc2c1)[C@@H](C)CC)C(N)=O [AP329, (2-NA)--NH(CH2)5 CO--R--I--D--R--I--NH2] ({Acetyl(2-naphthyl)-Ahx}-RIDRI-NH2)",0.14778 µM,–
"CC[C@H](C)[C@H](NC(=O)[C@H](CCCNC(=N)N)NC(=O)[C@H](CC(=O)O)NC(=O)[C@@H](NC(=O)[C@H](CCCNC(=N)N)NC(=O)CNC(=O)[C@@H](CO)NC(=O)Cc1ccc2ccccc2c1)[C@@H](C)CC)C(N)=O [AP330, (2-NA)--S^ --G--R--I--D--R--I--NH2] ({Acetyl(2-naphthyl)}-[dS]GRIDRI-NH2)",0.0164 µM,–
"CC[C@H](C)[C@H](NC(=O)[C@H](CCCNC(=N)N)NC(=O)[C@H](CC(=O)O)NC(=O)[C@@H](NC(=O)[C@H](CCCNC(=N)N)NC(=O)CNC(=O)CNC(=O)CC(c1ccccc1)c1ccccc1)[C@@H](C)CC)C(=O)NCC(=O)N[C@@H](C)C(N)=O [AP331, (3-DPP)--G--G--R--I--D--R--I--G--A--NH2] ({Propanoyl(3,3-Ph2)}-GGRIDRIGA-NH2)",0.00615 µM,–
"CC[C@H](C)[C@H](NC(=O)[C@H](CCCNC(=N)N)NC(=O)CNC(=O)CNC(=O)Cc1ccc2ccccc2c1)C(=O)N[C@@H](CC(=O)O)C(=O)N[C@@H](CCCNC(=N)N)C(=O)N[C@@H](CC(C)C)C(N)=O [AP332, (2-NA)--G--G--R--I--D--R--L--NH2] ({Acetyl(2-naphthyl)}-GGRIDRL-NH2)",0.0442 µM,–
"CC[C@H](C)[C@H](NC(=O)[C@H](CCCNC(=N)N)NC(=O)CNC(=O)CNC(=O)Cc1ccc2ccccc2c1)C(=O)N[C@@H](CC(=O)O)C(=O)N[C@@H](CCCNC(=N)N)C(=O)N[C@H](C(N)=O)C(C)C [AP333, (2-NA)--G--G--R--I--D--R--V--NH2] ({Acetyl(2-naphthyl)}-GGRIDRV-NH2)",0.1064 µM,–
"CC[C@H](C)[C@H](NC(=O)[C@H](CCCNC(=N)N)NC(=O)[C@H](CC(=O)O)NC(=O)[C@@H](NC(=O)[C@H](CCCNC(=N)N)NC(=O)CNC(=O)CNC(=O)CC1CCCCC1)[C@@H](C)CC)C(N)=O [AP334, (CHA)--G--G--R--I--D--R--I--NH2] (Cyclohexylacetyl-GGRIDRI-NH2)",0.0928 µM,–
"CC[C@H](C)[C@H](NC(=O)[C@H](CCCNC(=N)N)NC(=O)[C@H](CC(=O)O)NC(=O)[C@@H](NC(=O)[C@H](C)NC(=O)CNC(=O)CNC(=O)Cc1ccc2ccccc2c1)[C@@H](C)CC)C(N)=O [AP338, (2-NA)--G--G--A--I--D--R--I--NH2] ({Acetyl(2-naphthyl)}-GGAIDRI-NH2)",0.0826 µM,–
"CC[C@H](C)[C@H](NC(=O)[C@H](CCC(N)=O)NC(=O)[C@H](CC(=O)O)NC(=O)[C@@H](NC(=O)[C@H](CCCNC(=N)N)NC(=O)CNC(=O)CNC(=O)Cc1ccc2ccccc2c1)[C@@H](C)CC)C(N)=O [AP351, (2-NA)--G--G--R--I--D--Q--I--NH2] ({Acetyl(2-naphthyl)}-GGRIDQI-NH2)",0.02 µM,–
CC[C@H](C)[C@H](NC(=O)[C@H](CCCNC(=N)N)NC(=O)CNC(=O)CNC(=O)COc1ccc2ccccc2c1)C(=O)N[C@@H](CC(=O)O)C(=O)N[C@@H](CCCNC(=N)N)C(=O)NCC(C)C [AP509] ({Acetyl(2-naphthyloxy)}-GGRIDR-NHiBu),0.12 µM,–
CC[C@H](C)[C@H](NC(=O)[C@H](CCCNC(=N)N)NC(=O)CNC(=O)CNC(=O)Cc1ccc2ccccc2c1)C(=O)N[C@@H](CC(=O)O)C(=O)N[C@@H](CCCNC(=N)N)C(=O)NCC(C)C [AP510] ({Acetyl(2-naphthyl)}-GGRIDR-NHiBu),0.116 µM,–
"CCC(C)CNC(=O)[C@H](CCCNC(=N)N)NC(=O)[C@H](CC(=O)O)NC(=O)[C@@H](NC(=O)[C@H](CCCNC(=N)N)NC(=O)CNC(=O)CNC(=O)Cc1ccc2ccccc2c1)[C@@H](C)CC (some centres unmarked) [AP511, (2-NA)GGRIDRNHCH2CH(CH3)CH3 CH3] ({Acetyl(2-naphthyl)}-GGRIDR-X3)",0.0847 µM,–
"CC[C@H](C)[C@H](NC(=O)[C@H](CCCNC(=N)N)NC(=O)[C@H](CC(=O)O)NC(=O)[C@@H](NC(=O)[C@H](CC(C)C)NC(=O)CNC(=O)CNC(=O)Cc1ccc2ccccc2c1)[C@@H](C)CC)C(N)=O [AP512, (2-NA)--G--G--L--I--D--R--I--NH2] ({Acetyl(2-naphthyl)}-GGLIDRI-NH2)",> 0.16 µM,"very low, if any, activity"
"CCCC[C@H](NC(=O)CNC(=O)CNC(=O)Cc1ccc2ccccc2c1)C(=O)N[C@H](C(=O)N[C@@H](CC(=O)O)C(=O)N[C@@H](CCCNC(=N)N)C(=O)N[C@H](C(N)=O)[C@@H](C)CC)[C@@H](C)CC [AP514, (2-NA)--G--G--Nle--I--D--R--I--NH2] ({Acetyl(2-naphthyl)}-GG[Nle]IDRI-NH2)",0.267 µM,"very low, if any, activity"
"CC[C@H](C)[C@H](NC(=O)[C@H](CCCNC(=N)N)NC(=O)[C@H](CC(=O)O)NC(=O)[C@H](CC[S+](C)[O-])NC(=O)[C@H](CCCNC(=N)N)NC(=O)CNC(=O)CNC(=O)Cc1ccc2ccccc2c1)C(N)=O (stereo partly drawn) [AP515, (2-NA)--G--G--R--MSO--D--R--I--NH2] ({Acetyl(2-naphthyl)}-GGR[Met(O)]DRI-NH2)",> 0.4 µM,"very low, if any, activity"
"CC[C@H](C)[C@H](NC(=O)[C@H](CO)NC(=O)[C@H](CC(=O)O)NC(=O)[C@@H](NC(=O)[C@H](CCCNC(=N)N)NC(=O)CNC(=O)CNC(=O)Cc1ccc2ccccc2c1)[C@@H](C)CC)C(N)=O [AP516, (2-NA)--G--G--R--I--D--S--I--NH2] ({Acetyl(2-naphthyl)}-GGRIDSI-NH2)",0.399 µM,"very low, if any, activity"
"CC[C@H](C)[C@H](NC(=O)[C@H](CCCNC(=N)N)NC(=O)[C@H](CCC(=O)O)NC(=O)[C@@H](NC(=O)[C@H](CCCNC(=N)N)NC(=O)CNC(=O)CNC(=O)Cc1ccc2ccccc2c1)[C@@H](C)CC)C(N)=O [AP518, (2-NA)--G--G--R--I--E--R--I--NH2] ({Acetyl(2-naphthyl)}-GGRIERI-NH2)",0.038 µM,–
"CC[C@H](C)[C@H](NC(=O)[C@H](CCCNC(=N)N)NC(=O)CNC(=O)CNC(=O)Cc1ccc2ccccc2c1)C(=O)N[C@@H](CC(=O)O)C(=O)N[C@@H](CCCNC(=N)N)C(=O)N1CCC[C@H]1C(N)=O [AP519, (2-NA)--G--G--R--I--D--R--P--NH2] ({Acetyl(2-naphthyl)}-GGRIDRP-NH2)",> 0.4 µM,"very low, if any, activity"
"CC[C@H](C)[C@H](NC(=O)[C@H](CCCNC(=N)N)NC(=O)[C@H](CC(=O)O)NC(=O)[C@H](Cc1ccccc1)NC(=O)[C@H](CCCNC(=N)N)NC(=O)CNC(=O)CNC(=O)Cc1ccc2ccccc2c1)C(N)=O [AP521, (2-NA)--G--G--R--F--D--R--I--NH2] ({Acetyl(2-naphthyl)}-GGRFDRI-NH2)",0.4 µM,"very low, if any, activity"
"CC[C@H](C)[C@H](NC(=O)[C@H](CCCNC(=N)N)NC(=O)[C@H](CC(=O)O)NC(=O)[C@@H](NC(=O)[C@H](CCC(N)=O)NC(=O)CNC(=O)CNC(=O)Cc1ccc2ccccc2c1)[C@@H](C)CC)C(N)=O [AP522, (2-NA)--G--G--Q--I--D--R--I--NH2] ({Acetyl(2-naphthyl)}-GGQIDRI-NH2)",0.023 µM,–
"CC[C@H](C)[C@H](NC(=O)[C@H](CCCNC(=N)N)NC(=O)[C@H](CC(=O)O)NC(=O)[C@@H](NC(=O)[C@H](CCCCN)NC(=O)CNC(=O)CNC(=O)Cc1ccc2ccccc2c1)[C@@H](C)CC)C(N)=O [AP523, (2-NA)--G--G--K--I--D--R--I--NH2] ({Acetyl(2-naphthyl)}-GGKIDRI-NH2)",0.0367 µM,–
